Reference: the supplement of paper PMC10307832

Columns and labels:
Test in all cases: relative viability (nuclei count vs DMSO), 5 days (fraction); higher = more cells survive
BI-2536 + Decitabine = compound: CC[C@@H]1C(=O)N(C)c2cnc(Nc3ccc(C(=O)NC4CCN(C)CC4)cc3OC)nc2N1C1CCCC1 [BI-2536] + Nc1ncn([C@H]2C[C@H](O)[C@@H](CO)O2)c(=O)n1 [Decitabine] (partner 2 µM)
Summary of the method: (§1)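 Nuclei were stained with Hoechst during a one-step fixation (final 0.05% Triton X-100, 1% formaldehyde, 1 ug/ml Hoechst) carried out 5 days after dosing, then counted on 4× images. The cells, lung cancer lines in 1536-well plates, had been dosed by pin tool the day after seeding with one drug alone or a fixed anchor-drug dose plus five library-drug doses (not always all listed) in √10 steps. Relative viability is the nuclei count in treated wells divided by that in vehicle wells, and each value is the median of duplicate plates.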

BI-2536 + Trametinib = compound: CC[C@@H]1C(=O)N(C)c2cnc(Nc3ccc(C(=O)NC4CCN(C)CC4)cc3OC)nc2N1C1CCCC1 [BI-2536] + CC(=O)Nc1cccc(-n2c(=O)n(C3CC3)c(=O)c3c(Nc4ccc(I)cc4F)n(C)c(=O)c(C)c32)c1 [Trametinib] (partner 0.02 µM)
Summary of the method: as §1

[1] = compound: CC1CC(=O)N(C2=CN=C(N=C2N1C3CCCC3)NC4=C(C=C(C=C4)C(=O)NC5CCN(CC5)C)OC)C [NPK76-II-72-1] + CCNC(=O)c1noc(-c2cc(C(C)C)c(O)cc2O)c1-c1ccc(CN2CCOCC2)cc1 [Luminespib] (partner 0.01 µM)
Summary of the method: as §1

BI-2536 + Linsitinib = compound: CC[C@@H]1C(=O)N(C)c2cnc(Nc3ccc(C(=O)NC4CCN(C)CC4)cc3OC)nc2N1C1CCCC1 [BI-2536] + C[C@]1(O)C[C@@H](c2nc(-c3ccc4ccc(-c5ccccc5)nc4c3)c3c(N)nccn32)C1 [Linsitinib] (partner 1 µM)
Summary of the method: as §1

Row | Cell Line | relative viability (BI-2536 + Decitabine; first compound 0.01 µM) | relative viability (BI-2536 + Decitabine; first compound 0.03162 µM) | relative viability (BI-2536 + Decitabine; first compound 0.1 µM) | relative viability (BI-2536 + Decitabine; first compound 0.3162 µM) | relative viability (BI-2536 + Decitabine; first compound 1 µM) | relative viability (BI-2536 + Trametinib; first compound 0.01 µM) | relative viability (BI-2536 + Trametinib; first compound 0.03162 µM) | relative viability (BI-2536 + Trametinib; first compound 0.1 µM) | relative viability (BI-2536 + Trametinib; first compound 0.3162 µM) | relative viability (BI-2536 + Trametinib; first compound 1 µM) | relative viability ([1]; first compound 0.01 µM) | relative viability ([1]; first compound 0.03162 µM) | relative viability ([1]; first compound 0.1 µM) | relative viability ([1]; first compound 0.3162 µM) | relative viability ([1]; first compound 1 µM) | relative viability (BI-2536 + Linsitinib; first compound 0.01 µM) | relative viability (BI-2536 + Linsitinib; first compound 0.03162 µM) | relative viability (BI-2536 + Linsitinib; first compound 0.1 µM) | relative viability (BI-2536 + Linsitinib; first compound 0.3162 µM) | relative viability (BI-2536 + Linsitinib; first compound 1 µM)
1 | LU99A | 0.796 | 1.02 | 0.717 | 0.198 | 0.25 | 0.525 | 0.647 | 0.562 | 0.196 | 0.192 | 0.261 | 0.212 | 0.304 | 0.238 | 0.278 | 0.593 | 0.534 | 0.472 | 0.172 | 0.194
2 | LXF-289 | 0.382 | 0.376 | 0.363 | 0.0762 | 0.1 | 0.68 | 0.654 | 0.64 | 0.12 | 0.102 | 0.614 | 0.761 | 0.675 | 0.694 | 0.688 | 0.988 | 0.892 | 0.845 | 0.069 | 0.0799
3 | NCI-H23 | 0.3 | 0.364 | 0.244 | 0.155 | 0.168 | 0.372 | 0.464 | 0.201 | 0.112 | 0.14 | 0.237 | 0.209 | 0.228 | 0.228 | 0.201 | 0.536 | 0.542 | 0.644 | 0.191 | 0.138
4 | NCI-H322M | 0.69 | 0.64 | 0.649 | 0.462 | 0.451 | 0.535 | 0.473 | 0.564 | 0.435 | 0.361 | 0.818 | 0.826 | 0.943 | 0.783 | 1.01 | 0.921 | 0.835 | 1.04 | 0.668 | 0.339
5 | NCI-H358 | 0.204 | 0.187 | 0.0935 | 0.0948 | 0.112 | 0.146 | 0.126 | 0.11 | 0.0815 | 0.0734 | 0.21 | 0.431 | 0.521 |  | 0.839 | 0.723 | 0.676 | 0.402 | 0.161 | 0.137
6 | NCI-H441 | 0.244 | 0.247 | 0.153 | 0.149 | 0.149 | 0.517 | 0.29 | 0.158 | 0.154 | 0.162 | 0.35 | 0.348 | 0.299 | 0.425 | 0.536 | 0.521 | 0.575 | 0.321 | 0.126 | 0.133
7 | NCI-H460 | 0.596 | 0.486 | 0.114 | 0.0205 | 0.0215 | 0.205 | 0.154 | 0.0447 | 0.0185 | 0.0133 | 0.0406 | 0.0404 | 0.0346 | 0.0272 | 0.0329 | 0.844 | 0.755 | 0.28 | 0.0093 | 0.0128
8 | NCI-H520 | 0.538 | 0.393 | 0.226 | 0.195 | 0.209 | 0.712 | 0.503 | 0.352 | 0.187 | 0.164 | 0.206 | 0.24 | 0.285 | 0.181 | 0.245 | 0.984 | 0.852 | 0.792 | 0.153 | 0.171
9 | NCI-H596 | 1.07 | 1.25 | 0.996 | 0.611 | 0.417 | 0.758 | 0.798 | 0.721 | 0.414 | 0.256 | 0.871 | 1.18 | 0.975 | 1.03 | 1.12 | 1.09 | 1.1 | 1.11 | 0.363 | 0.39
10 | NCI-H647 | 0.391 | 0.301 | 0.103 | 0.0938 | 0.135 | 0.482 | 0.458 | 0.213 | 0.087 | 0.0808 | 0.189 | 0.188 | 0.143 | 0.202 | 0.23 | 1.15 | 1.15 | 1.11 | 0.108 | 0.0822
11 | NCI-H650 | 0.303 | 0.328 | 0.246 | 0.146 | 0.126 | 0.847 | 0.956 | 0.858 | 0.152 | 0.16 | 0.72 | 0.843 | 0.718 | 0.615 | 0.891 | 0.964 | 0.881 | 0.534 | 0.165 | 0.17
12 | NCI-H661 | 0.534 | 0.424 | 0.278 | 0.253 | 0.265 | 0.587 | 0.427 | 0.291 | 0.238 | 0.264 | 0.964 | 0.943 | 0.892 | 0.906 | 0.933 | 0.458 | 0.567 | 0.709 | 0.232 | 0.2
13 | NCI-H727 | 0.819 | 0.841 | 0.849 | 0.477 | 0.372 | 0.366 | 0.364 | 0.379 | 0.362 | 0.332 | 0.29 | 0.31 | 0.288 | 0.246 | 0.412 | 0.416 | 0.268 | 0.281 | 0.282 | 0.211
14 | NCI-H838 | 0.445 | 0.413 | 0.185 | 0.151 | 0.142 | 0.532 | 0.625 | 0.478 | 0.081 | 0.0789 | 0.288 | 0.344 | 0.299 | 0.273 | 0.274 | 1.05 | 0.961 | 0.96 | 0.136 | 0.126
15 | NCI-H1355 | 0.357 | 0.369 | 0.342 | 0.148 | 0.154 | 0.428 | 0.47 | 0.46 | 0.176 | 0.174 | 0.678 | 0.716 | 0.756 | 0.67 | 0.763 | 0.877 | 0.889 | 0.856 | 0.227 | 0.178
16 | NCI-H1395 | 0.628 | 0.509 | 0.366 | 0.337 | 0.345 | 1.06 | 0.635 | 0.611 | 0.353 | 0.369 | 0.774 | 0.76 | 0.678 | 0.709 | 0.863 | 0.928 | 0.785 | 0.633 | 0.544 | 0.474
